System: mice
Experiment: formalin paw test (pain response)
Assay type: in vivo, mouse
Conditions: 60 mg/kg sc; administered 30 minutes prior to formalin injection; % response relative to gabapentin 200 mg/kg
Description: AAK1 homozygous (−/−) and their wild-type (+/+) littermates were tested using the formalin paw test in order to assess their acute and tonic nociceptive responses. For these tests, Automatic Nociception Analyzers (purchased from the Ozaki lab at University of California, San Diego) were used. A metal band was placed around the left hind paw of each mouse 30 minutes prior to testing. After the 30-minute acclimation period, 20 μl of 5% formalin is subcutaneously injected in the dorsal surface of the left hind paw. Mice were individually housed in cylindrical chambers for 45 minutes. Fresh 5% formalin solution was prepared by diluting formaldehyde (Formalde-fresh 20%, Fisher Scientific, Fair Lawn, N.J.) with distilled water. Investigatory compounds were administered 30 minutes prior to formalin injection.
A computer recorded flinches per minute, total flinches for phase I (acute phase=first 8 minutes), and total flinches for phase II (tonic phase=time between minutes 20-40 or 10-60 minutes for drug studies) through an electromagnetic field. See Yaksh T L, Ozaki G, McCumber D, Rathbun M, Svensson C, Malkmus S, Yaksh M C. An automated flinch detecting system for use in the formalin nociceptive bioassay. J Appl Physiol., 2001; 90:2386-402.
The same test was used to confirm that the administration of an AAK1 inhibitor can also affect pain response. […]

CC(C)c1nc(-c2cccc(NC(=O)c3cnc4c(Nc5ccccc5)cc(N[C@H]5CC[C@H](N)CC5)nn34)c2)no1 [Example 1, 6-(trans-4-Aminocyclohexylamino)-N-(3-(5-isopropyl-1,2,4-oxadiazol-3-yl)phenyl)-8-(phenylamino)imidazo[1,2-b]pyridazine-3-carboxamide] was tested. Which Response did it give?
Its Response is 59%.

Same assay, conditions: 200 mg/kg sc; administered 30 minutes prior to formalin injection; % response relative to gabapentin 200 mg/kg

For NCC1(CC(=O)O)CCCCC1 [Gabapentin, reference compound], which Response is on record?
Its Response is 73%.

Target: T1, GST-Xa-hAAK1 (Homo sapiens, UniProt Q2M2I8)
T1 construct: made in house
T1 sequence (Q2M2I8 whole entry): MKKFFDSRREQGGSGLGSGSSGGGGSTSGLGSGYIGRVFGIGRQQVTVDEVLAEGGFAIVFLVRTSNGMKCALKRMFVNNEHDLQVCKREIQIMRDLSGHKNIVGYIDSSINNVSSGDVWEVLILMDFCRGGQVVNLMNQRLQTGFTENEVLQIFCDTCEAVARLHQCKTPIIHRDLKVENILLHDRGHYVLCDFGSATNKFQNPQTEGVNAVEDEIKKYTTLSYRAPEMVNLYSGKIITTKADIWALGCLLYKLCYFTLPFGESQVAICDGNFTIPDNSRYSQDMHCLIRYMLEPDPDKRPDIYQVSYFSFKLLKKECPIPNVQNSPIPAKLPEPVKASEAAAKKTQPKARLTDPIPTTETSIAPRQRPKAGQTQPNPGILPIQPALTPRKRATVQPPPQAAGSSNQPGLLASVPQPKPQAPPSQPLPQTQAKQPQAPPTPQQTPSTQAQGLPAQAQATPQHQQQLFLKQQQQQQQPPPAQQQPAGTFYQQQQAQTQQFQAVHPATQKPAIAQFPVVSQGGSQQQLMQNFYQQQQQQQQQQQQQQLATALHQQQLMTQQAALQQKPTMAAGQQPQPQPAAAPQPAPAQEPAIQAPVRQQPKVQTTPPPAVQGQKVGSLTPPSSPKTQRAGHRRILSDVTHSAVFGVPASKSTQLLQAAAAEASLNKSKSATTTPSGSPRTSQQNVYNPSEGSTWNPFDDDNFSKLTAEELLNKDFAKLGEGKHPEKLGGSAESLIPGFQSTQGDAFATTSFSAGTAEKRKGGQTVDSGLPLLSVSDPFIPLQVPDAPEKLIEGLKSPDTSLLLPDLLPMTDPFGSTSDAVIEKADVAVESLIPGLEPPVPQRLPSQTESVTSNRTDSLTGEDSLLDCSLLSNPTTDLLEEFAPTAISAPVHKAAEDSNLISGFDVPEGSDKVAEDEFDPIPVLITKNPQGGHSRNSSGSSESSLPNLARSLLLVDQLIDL
Experiment: AAK1 Kinase Assay
Assay type: biochemical
Conditions: ATP 22 μM; GST-Xa-hAAK1 3.5 nM; 3 hours at room temperature; Caliper LabChip 3000
Source text: IC50 values were derived by non-linear regression analysis.

Which IC50 does the source give for CC(C)c1nc(-c2cccc(NC(=O)c3cnc4c(Nc5ccccc5)cc(N[C@H]5CC[C@H](N)CC5)nn34)c2)no1 [Example 1, 6-(trans-4-Aminocyclohexylamino)-N-(3-(5-isopropyl-1,2,4-oxadiazol-3-yl)phenyl)-8-(phenylamino)imidazo[1,2-b]pyridazine-3-carboxamide] here?
Its IC50 is 10 nM.

For CC(C)c1nc(-c2cccc(NC(=O)c3cnc4c(Nc5ccccc5)cc(N[C@H]5CC[C@H](N)CC5)nn34)c2)co1 [Example 3, 6-(trans-4-Aminocyclohexylamino)-N-(3-(2-isopropyloxazol-4-yl)phenyl)-8-(phenylamino)imidazo[1,2-b]pyridazine-3-carboxamide], which IC50 is on record?
The IC50 was 94 nM.

How did the IC50 turn out when CNc1cc(N[C@H]2CC[C@H](N)CC2)nn2c(-c3ccsc3)cnc12 [Example 20, N^6-(trans-4-Aminocyclohexyl)-N^8-methyl-3-(thiophen-3-yl)imidazo[1,2-b]pyridazine-6,8-diamine] was run?
The IC50 was 38 nM.

How did the IC50 turn out when CNc1cc(N[C@H]2CC[C@H](N)CC2)nn2c(C(=O)Nc3cccc(-c4nnc(C(C)C)s4)c3)cnc12 [Example 8, 6-(trans-4-Aminocyclohexylamino)-N-(3-(5-isopropyl-1,3,4-thiadiazol-2-yl)phenyl)-8-(methylamino)imidazo[1,2-b]pyridazine-3-carboxamide] was run?
Its IC50 is 8.9 nM.

For N[C@H]1CC[C@H](Nc2ccc3ncc(C(=O)Nc4cccc(-c5coc(-c6ccccc6)n5)c4)n3n2)CC1 [Example 16, 6-(trans-4-Aminocyclohexylamino)-N-(3-(2-phenyloxazol-4-yl)phenyl)imidazo[1,2-b]pyridazine-3-carboxamide], which IC50 is on record?
Its IC50 is 154 nM.

Which IC50 does the source give for CNc1cc(N[C@H]2CC[C@H](N)CC2)nn2c(C(=O)Nc3cccc(-c4noc(C(C)C)n4)c3)cnc12 [Example 10, 6-(trans-4-Aminocyclohexylamino)-N-(3-(5-isopropyl-1,2,4-oxadiazol-3-yl)phenyl)-8-(methylamino)imidazo[1,2-b]pyridazine-3-carboxamide] here?
The IC50 was 16 nM.

CC(C)c1nc(-c2cccc(NC(=O)c3cnc4ccc(N[C@H]5CC[C@H](N)CC5)nn34)c2)co1 [Example 14, 6-(trans-4-Aminocyclohexylamino)-N-(3-(2-isopropyloxazol-4-yl)phenyl)imidazo[1,2-b]pyridazine-3-carboxamide] was tested. Which IC50 did it give?
The IC50 was 158 nM.

With CN(C)[C@H]1CC[C@H](Nc2cc(Nc3ccccc3)c3ncc(-c4ccsc4)n3n2)CC1 [Example 19, N^6-(trans-4-(Dimethylamino)cyclohexyl)-N^8-phenyl-3-(thiophen-3-yl)imidazo[1,2-b]pyridazine-6,8-diamine] as the molecule, how does the IC50 read?
Its IC50 is 12 nM.

With CC(C)c1nc(-c2cccc(NC(=O)c3cnc4ccc(N[C@H]5CC[C@H](N)CC5)nn34)c2)no1 [Example 11, 6-(trans-4-Aminocyclohexylamino)-N-(3-(5-isopropyl-1,2,4-oxadiazol-3-yl)phenyl)imidazo[1,2-b]pyridazine-3-carboxamide] as the molecule, how does the IC50 read?
The IC50 was 27 nM.

How did the IC50 turn out when Cc1nc(-c2cccc(NC(=O)c3cnc4c(Nc5ccccc5)cc(N[C@H]5CC[C@H](N)CC5)nn34)c2)cs1 [Example 7, 6-(trans-4-Aminocyclohexylamino)-N-(3-(2-methylthiazol-4-yl)phenyl)-8-(phenylamino)imidazo[1,2-b]pyridazine-3-carboxamide] was run?
The IC50 was 114 nM.

Which IC50 does the source give for Cc1nc(-c2cccc(NC(=O)c3cnc4ccc(N[C@H]5CC[C@H](N)CC5)nn34)c2)co1 [Example 15, 6-(trans-4-Aminocyclohexylamino)-N-(3-(2-methyloxazol-4-yl)phenyl)imidazo[1,2-b]pyridazine-3-carboxamide] here?
Its IC50 is 342 nM.

CC(C)n1nnc(-c2cccc(NC(=O)c3cnc4c(Nc5ccccc5)cc(N[C@H]5CC[C@H](N)CC5)nn34)c2)n1 [Example 4, 6-(trans-4-Aminocyclohexylamino)-N-(3-(2-isopropyl-2H-tetrazol-5-yl)phenyl)-8-(phenylamino)imidazo[1,2-b]pyridazine-3-carboxamide] was tested. Which IC50 did it give?
The IC50 was 5.1 nM.

With CC(C)c1nnc(-c2cccc(NC(=O)c3cnc4ccc(N[C@H]5CC[C@H](N)CC5)nn34)c2)s1 [Example 12, 6-(trans-4-Aminocyclohexylamino)-N-(3-(5-isopropyl-1,3,4-thiadiazol-2-yl)phenyl)imidazo[1,2-b]pyridazine-3-carboxamide] as the molecule, how does the IC50 read?
The IC50 was 9.1 nM.

With Cc1nc(-c2cccc(NC(=O)c3cnc4c(Nc5ccccc5)cc(N[C@H]5CC[C@H](N)CC5)nn34)c2)co1 [Example 5, 6-(trans-4-Aminocyclohexylamino)-N-(3-(2-methyloxazol-4-yl)phenyl)-8-(phenylamino)imidazo[1,2-b]pyridazine-3-carboxamide] as the molecule, how does the IC50 read?
Its IC50 is 79 nM.

N[C@H]1CC[C@H](Nc2cc(Nc3ccccc3)c3ncc(C(=O)Nc4cccc(-c5coc(-c6ccccc6)n5)c4)n3n2)CC1 [Example 6, 6-(trans-4-Aminocyclohexylamino)-8-(phenylamino)-N-(3-(2-phenyloxazol-4-yl)phenyl)imidazo[1,2-b]pyridazine-3-carboxamide] was tested. Which IC50 did it give?
Its IC50 is 940 nM.

How did the IC50 turn out when N[C@H]1CC[C@H](Nc2cc(Nc3ccccc3)c3ncc(-c4ccsc4)n3n2)CC1 [Example 17, N^6-(trans-4-Aminocyclohexyl)-N^8-phenyl-3-(thiophen-3-yl)imidazo[1,2-b]pyridazine-6,8-diamine] was run?
The IC50 was 10 nM.

For CNc1cc(N[C@H]2CC[C@H](N)CC2)nn2c(C(=O)Nc3cccc(-c4nnn(C(C)C)n4)c3)cnc12 [Example 9, 6-(trans-4-Aminocyclohexylamino)-N-(3-(2-isopropyl-2H-tetrazol-5-yl)phenyl)-8-(methylamino)imidazo[1,2-b]pyridazine-3-carboxamide], which IC50 is on record?
The IC50 was 8 nM.

How did the IC50 turn out when CC(C)c1nnc(-c2cccc(NC(=O)c3cnc4c(Nc5ccccc5)cc(N[C@H]5CC[C@H](N)CC5)nn34)c2)s1 [Example 2, 6-(trans-4-Aminocyclohexylamino)-N-(3-(5-isopropyl-1,3,4-thiadiazol-2-yl)phenyl)-8-(phenylamino)imidazo[1,2-b]pyridazine-3-carboxamide] was run?
Its IC50 is 11 nM.

COc1ccc(Nc2cc(N[C@H]3CC[C@H](N)CC3)nn3c(-c4ccsc4)cnc23)cc1 [Example 22, N^6-(trans-4-Aminocyclohexyl)-N^8-(4-methoxyphenyl)-3-(thiophen-3-yl)imidazo[1,2-b]pyridazine-6,8-diamine] was tested. Which IC50 did it give?
Its IC50 is 9 nM.

Which IC50 does the source give for CC(C)n1nnc(-c2cccc(NC(=O)c3cnc4ccc(N[C@H]5CC[C@H](N)CC5)nn34)c2)n1 [Example 13, 6-(trans-4-Aminocyclohexylamino)-N-(3-(2-isopropyl-2H-tetrazol-5-yl)phenyl)imidazo[1,2-b]pyridazine-3-carboxamide] here?
The IC50 was 12 nM.

Which IC50 does the source give for N[C@H]1CC[C@H](Nc2cc(NC3CC3)c3ncc(-c4ccsc4)n3n2)CC1 [Example 21, N^6-(trans-4-Aminocyclohexyl)-N^8-cyclopropyl-3-(thiophen-3-yl)imidazo[1,2-b]pyridazine-6,8-diamine] here?
Its IC50 is 40 nM.

Source: patent US20160199372A1, “IMIDAZOPYRIDAZINE KINASE INHIBITORS USEFUL TO TREATING A DISEASE OR DISORDER MEDIATED BY AAK1, SUCH AS ALZHEIMER'S DISEASE, BIPOLAR DISORDER, PAIN, SCHIZOPHRENIA” (Bristol-Myers Squibb Company, priority 2013, published 2016)
